US12358983B2, “Combination of anti CD19 antibody with a BCL-2 inhibitor and uses thereof” (Incyte Corporation, priority 2016, dated 2025)

Experiments:
MEC-1 cells = assay: Cytotoxicity (ADCC assay with NK effector cells) of MOR00208 and venetoclax alone and in combination in MEC-1 cells; assay type: cell-based
Source text: Cell lines tested: MEC-1 cells (DSMZ# ACC497). Culture conditions of cell lines used are according to supplier's information. Cell Medium: lscove's Modified Dulbecco's Medium (IMDM), Invitrogen, Cat No.: 31980; RPMI1640, Invitrogen, Cat No.: 31870; GlutaMAX, Invitrogen, CAT No.: 35050; FCS: Sigma CAT No.: F7524 LOT No.: 111M3396. NKs: RPMI1640, with GlutaMAX, Invitrogen, Cat No.: 31870, 10% FCS; Biocoll: Biochrome AG CAT No.: L6115 LOT No.: 0034D; MACS NK cell isolation kit: Miltenyi Biotec CAT No.: 130-092-657 LOT No.: 5150402327; venetoclax: Selleck Chem. CAT No.: S8048 LOT No.: S804803; FCS: Sigma CAT No.: F7524 LOT No.: 111M3396; and RefmAb33 (anti-RSV) with same Fc region as MOR00208.
The cytotoxic potential of MOR00208 and venetoclax alone and in combination were tested in the MEC-1 cell line (CLL). Target cell killing is measured using the following parameters: venetoclax mono treatment at concentrations of 3 μM, 6.5 μM, and 10 μM; MOR00208 mono treatment at concentrations of 0.01 pM, 0.1 pM, 1 pM, 10 pM, 100 pM and 10 nM, and the combination treatment of the listed venetoclax and MOR00208 concentrations. The following are used as controls: RefnnAb33, NK cells alone, MEC-1 cells alone or DMSO. In the venetoclax mono groups as well as in the MOR00208+venetoclax combination groups, target cells were pretreated with venetoclax or with DMSO control for 24 hours followed by removal of the dead cells prior to the ADCC assay. A dead cell removal kit was used to remove cells killed by the cytotoxic effect of venetoclax. The dead cell removal kit was implemented to mimick the removal of dead cells that also occurs in vivo and to prevent false negative interference of the dead cells with the subsequent ADCC assay. For the ADCC assay, target cells are counted and stained using CFSE at a final concentration of 1 μg/mL. For the control group, i.e. DMSO treated target cells, the effector: target (E:T) cell ratio was adjusted to 2:1, i.e. 1×10E6/nnL effector cells (NK cells) and 5×10E5/mL target cells (MEC-1 cells). […] The ADCC assays were performed as follows: using 96 well plates, 100 μL of MEC-1 target cell suspension was added per well, followed by 100 μL NK effector cell suspension per well. Mixed cell suspensions were centrifuged and resuspended in 100 μL antibody containing medium or the according control solution. The antibodies were diluted in a range of 10 nM-0.01 pM (corresponds to 1.5 μg/mL-1.5 pg/mL) in medium. The ADCC assays were incubated for 2 hours in a CO2-incubator at 37° C. After 10 minutes incubation on ice, 50 μL DAPI solution was added to each well (final concentration 1 μg/mL) and incubated for additional 10 minutes on ice. The ADCC measurements were performed on a BD FACSVerse instrument. Dead target cells were identified as DAPI positive cells.
Combination Index (CI) calculations are completed in order to determine synergy of the combination of the exemplified anti-CD19 antibody and venetoclax as compared to MOR00208 and venetoclax alone. Such calculations are described in Ting-Chao Chou, Theoretical Basis, Experimental Design, and Computerized Simulation of Synergism and Antagonism in Drug Combination Studies, Pharmacol Rev 58:621-681 (2006), which is incorporated by reference in its entirety and Chou TC, Talalay P, Quantitative analysis of dose-effect relationships: the combined effects of multiple drugs or enzyme inhibitors. Adv Enzyme Regul 22: 27-55 (1984), which is incorporated by reference in its entirety. The methods of Chou-Talalay are carried out using the CI-isobol method.
The median-effect equation models the effect of an inhibitor (such as a drug) as Fa/Fu=(D/D50)^m, where D is the dose, Fa and Fu is the fraction of the system affected and unaffected by the dose D (Fa+Fu=1); D50 is the dose producing the median effect (e.g. IC50, ED50, LD50). The constant m determines the shape of the dose-effect curve.

[1] = tested on: TOLEDO human lymphoma cell tumors; assay: Subcutaneous human lymphoma cell xenograft model in SCID mice; details: MOR00208 11 mg/kg i.p. twice weekly
Description: Toledo cell line and culture medium were purchased and provided by Oncodesign. […] The cells are adherent to plastic flasks.
A statistical test (analysis of variance, ANOVA) was performed to test for homogeneity between groups. MOR208 was injected intraperitoneally (IP) into the peritoneal cavity of mice. Combined substance was administered by oral gavage (per os, PO) via a gavage tube.
The treatment schedule initiated at D23 was as follows:
Animals from group 1 received one daily PO administration of PEP and one IP injection twice a week of PBS.
Animals from group 4 received one IP injection of MOR208 at 11 mg/kg/inj on D23, D27, D30, D34, D37 and D41 followed by a single IP injection of MOR208 at 11 mg/kg/inj on D48 (twice a week).
The viability and behavior were recorded every day. Body weights and tumor volume were measured twice a week. The length and width of the tumor were measured twice a week with calipers and the volume of the tumor was estimated by the formula:

## MOR00208: anti-CD19 antibody; heavy chain SEQ ID NO: 14, light chain SEQ ID NO: 15
MEC-1 cells; Exp 2, same effect as MOR00208 1.50E−03 μg/mL + venetoclax 10.0 μM
  Theoretical MOR00208 Dose: * 1.00E+03^ μg/mL
MEC-1 cells; Exp 2, same effect as MOR00208 1.50E−04 μg/mL + venetoclax 3.0 μM
  Theoretical MOR00208 Dose: 0.000155 µg/mL
MEC-1 cells; Exp 2, same effect as MOR00208 1.50E−04 μg/mL + venetoclax 6.5 μM
  Theoretical MOR00208 Dose: 0.000591 µg/mL
MEC-1 cells; Exp 2, same effect as MOR00208 1.50E−04 μg/mL + venetoclax 10.0 μM
  Theoretical MOR00208 Dose: 0.00289 µg/mL
MEC-1 cells; Exp 2, same effect as MOR00208 1.50E−05 μg/mL + venetoclax 3.0 μM
  Theoretical MOR00208 Dose: 1.94e-05 µg/mL
MEC-1 cells; Exp 2, same effect as MOR00208 1.50E−05 μg/mL + venetoclax 6.5 μM
  Theoretical MOR00208 Dose: 0.000109 µg/mL
MEC-1 cells; Exp 2, same effect as MOR00208 1.50E−05 μg/mL + venetoclax 10.0 μM
  Theoretical MOR00208 Dose: 0.000725 µg/mL
MEC-1 cells; Exp 2, same effect as MOR00208 1.50E−06 μg/mL + venetoclax 6.5 μM
  Theoretical MOR00208 Dose: 2.9e-05 µg/mL
MEC-1 cells; Exp 2, same effect as MOR00208 1.50E−06 μg/mL + venetoclax 10.0 μM
  Theoretical MOR00208 Dose: 0.000145 µg/mL
MEC-1 cells; Exp 3, MOR00208 1.50E+00 μg/mL
  Actual MOR00208 Effect: 74.8 % dead cells
MEC-1 cells; Exp 3, MOR00208 1.50E−02 μg/mL
  Actual MOR00208 Effect: 69.1 % dead cells
MEC-1 cells; Exp 3, MOR00208 1.50E−03 μg/mL
  Actual MOR00208 Effect: 45.3 % dead cells
MEC-1 cells; Exp 3, MOR00208 1.50E−04 μg/mL
  Actual MOR00208 Effect: 26.6 % dead cells
MEC-1 cells; Exp 3, MOR00208 1.50E−05 μg/mL
  Actual MOR00208 Effect: 18.9 % dead cells
MEC-1 cells; Exp 3, MOR00208 1.50E−06 μg/mL
  Actual MOR00208 Effect: 11.8 % dead cells
MEC-1 cells; Exp 3, same effect as MOR00208 1.50E+00 μg/mL + venetoclax 3.0 μM
  Theoretical MOR00208 Dose: * 1.00E+03^ μg/mL
MEC-1 cells; Exp 3, same effect as MOR00208 1.50E+00 μg/mL + venetoclax 6.5 μM
  Theoretical MOR00208 Dose: * 1.00E+03^ μg/mL
MEC-1 cells; Exp 3, same effect as MOR00208 1.50E+00 μg/mL + venetoclax 10.0 μM
  Theoretical MOR00208 Dose: * 1.00E+03^ μg/mL
MEC-1 cells; Exp 3, same effect as MOR00208 1.50E−02 μg/mL + venetoclax 3.0 μM
  Theoretical MOR00208 Dose: 0.279 µg/mL
MEC-1 cells; Exp 3, same effect as MOR00208 1.50E−02 μg/mL + venetoclax 6.5 μM
  Theoretical MOR00208 Dose: * 1.00E+03^ μg/mL
MEC-1 cells; Exp 3, same effect as MOR00208 1.50E−02 μg/mL + venetoclax 10.0 μM
  Theoretical MOR00208 Dose: * 1.00E+03^ μg/mL
MEC-1 cells; Exp 3, same effect as MOR00208 1.50E−03 μg/mL + venetoclax 3.0 μM
  Theoretical MOR00208 Dose: 0.00152 µg/mL
MEC-1 cells; Exp 3, same effect as MOR00208 1.50E−03 μg/mL + venetoclax 6.5 μM
  Theoretical MOR00208 Dose: 0.00652 µg/mL
MEC-1 cells; Exp 3, same effect as MOR00208 1.50E−03 μg/mL + venetoclax 10.0 μM
  Theoretical MOR00208 Dose: * 1.00E+03^ μg/mL
MEC-1 cells; Exp 3, same effect as MOR00208 1.50E−04 μg/mL + venetoclax 3.0 μM
  Theoretical MOR00208 Dose: 0.000218 µg/mL
MEC-1 cells; Exp 3, same effect as MOR00208 1.50E−04 μg/mL + venetoclax 6.5 μM
  Theoretical MOR00208 Dose: 0.000602 µg/mL
MEC-1 cells; Exp 3, same effect as MOR00208 1.50E−04 μg/mL + venetoclax 10.0 μM
  Theoretical MOR00208 Dose: 0.0042 µg/mL
MEC-1 cells; Exp 3, same effect as MOR00208 1.50E−05 μg/mL + venetoclax 3.0 μM
  Theoretical MOR00208 Dose: 2.9e-05 µg/mL
MEC-1 cells; Exp 3, same effect as MOR00208 1.50E−05 μg/mL + venetoclax 6.5 μM
  Theoretical MOR00208 Dose: 0.000157 µg/mL
MEC-1 cells; Exp 3, same effect as MOR00208 1.50E−05 μg/mL + venetoclax 10.0 μM
  Theoretical MOR00208 Dose: 0.000983 µg/mL
MEC-1 cells; Exp 3, same effect as MOR00208 1.50E−06 μg/mL + venetoclax 6.5 μM
  Theoretical MOR00208 Dose: 2.67e-05 µg/mL
MEC-1 cells; Exp 3, same effect as MOR00208 1.50E−06 μg/mL + venetoclax 10.0 μM
  Theoretical MOR00208 Dose: 0.000371 µg/mL
MEC-1 cells; very low doses of MOR00208
  Effect in ADCC cell killing assays (in words): little or no effect
[1]
  Median Tumor Doubling Time: 8.0 days
[1]; humane endpoint tumor volume 2000 mm3
  Median Survival (Days Post-Randomization): 25.3 days
[1]; vs. PEP/PBS Control
  Median % Increase in Doubling Time (IDT): 18%
  Median % Increase in Lifespan (ILS): 20%
